This note sets out measurements from patent US5063225A, “Benzothiazepines” (Roussel Uclaf, priority 1989, dated 1991).

SMILES strings stand for the structures. Structures can show the parent of a compound that is named as a salt. Where two headings read alike, the source gives them in different places.

Data set [1] concerns blood-platelets (rabbit PRP). Nature of the data set: Blood-platelet aggregation, in vitro, on plasma rich in blood-platelets (PRP). It counts as cell-based. The settings on record: Oryctolagus cuniculus, 2 min, 2 minutes incubation, read-out: IC50 (concentration inhibiting the aggregation by 50%). The source says:
2) Test for the Activity of Anti-Aggregation of Blood-Platelets. Blood-Platelet Aggregation, In Vitro, on Plasma Rich in Blood-Platelets (PRP)
Measurement of blood-platelet aggregation was made by the turbidimetric method of Born et al 1963, J. Physiol., Vol. 168, p. 178. Rabbit's blood was removed on Na citrate at 3.2% by cardiac puncture and the plasma rich in blood-platelets was obtained by centrifuging and adjustment of the number of blood-platelets to 300,000 per microliter. The aggregation was induced by collagen (40 micrograms per ml of PRP) or PAF acether (0.05 micromoles per liter of PRP). The compounds under test were incubated at different concentrations in the PRP 2 minutes before the aggregating agent. The results were expressed in IC50 (concentration inhibiting the aggregation by 50% relative to the control curves).

Data set [2] deals with ventricular extrasystoles initiated by aconitine in rats. Description: Anti-arhythmic action in the rat (aconitine-induced ventricular extrasystoles). Format: in vivo. The note with it: relative to control animals. As to the method: 1) Anti-arhythmic action in the rat
Male rats weighing 300-350 g, anaesthetized by intraperitoneal route using 1.20 g/kg of urethane, were tracheotomized and subjected to artificial respiration (40-50 insufflations of 3 ml/minute). Needles were implanted subcutaneously to record the electro-cardiogram of the rats on the signal in the DII derivation. The products under test were administered by intravenous route or by oral route. After five minutes in the case of administration intravenously and one hour in the case of oral administration, the jugular vein of the rats was perfused with 10 micrograms/min. under 0.2 ml of an aconitine solution. The time taken for the first ventricular extrasystoles to appear was noted and the amount of aconitine perfused was calculated, then expressed as a function of the body weight of the animal.
The percentage of increase of the aconitine dose necessary to initiate the ventricular extrasystoles after treatment was calculated relative to the control animals.

In another data set the test system is mouse. Nature of the data set: Study of the acute toxicity. Format: in vivo. The note with it: single administration. The protocol:
4) Study of the Acute Toxicity
The lethal doses LD of the various compounds under test were evaluated after a single administration intraperitoneally or orally to a mouse.

In data set [3] the test system is broncho-constriction induced by serotonin. Description: Anti-serotoninergic activity: broncho-constriction in a guinea-pig induced by serotonin. The settings on record: 1 mg/kg injected via jugular vein one minute before serotonin (3 to 5 micrograms/kg IV). It counts as in vivo. As to the method:
3) Test for Anti-Serotoninergic Activity Broncho-constriction in a guinea-pig induced by serotonin. The pulmonary resistance to insufflation was measured by the technique of "overflow" according to KONZETT et al [Arch. Ex. Pathol. Pharmakol, 1940, Vol. 195, p. 71]. The guinea-pigs were anaesthetized with urethane and the jugular vein was catherized to inject the products, and the trachea was catheterized to insert artificial ventilation. Broncho-constriction was induced by a dose of 3 to 5 micrograms/kg of serotonin injected intravenously and the antagonists were injected one minute before the induction of the broncho-spasm. It can be noted from the results of the table below that the products of the present Application have a strong anti-serontoninergic activity.

[4] abbreviates: induction by PAF-ACETHER (0.05 micromoles per liter of PRP).
[5] abbreviates: induction by collagen (40 micrograms per ml of PRP).
The mark [6] stands for this setting: IV, 5 mg/kg, five minutes before aconitine.
The mark [7] stands for this setting: oral (O), 25 mg/kg, one hour before aconitine.

As to `COc1ccc(C2CSc3ccccc3N(CCN(C(C)C)C(C)C)C2=O)cc1` (racemic) [Example 9, (±)-5-[2-[[bis(1-methylethyl)]-amino]-ethyl]-2,3-dihydro-3-(4-methoxyphenyl)-1,5-benzothiazepin-4(5H)-one hydrochloride], the IC50 was found to be 58 µM in data set [1] (setting [4]) and 66 µM in data set [1] (setting [5]).

`COc1ccc(C2CSc3ccccc3N(CCCN(C)C)C2=O)cc1` (stereo not shown) [Example 6, 2,3-dihydro-5-[3-(dimethylamino)-propyl]-3-(4-methoxyphenyl)-1,5-benzothiazepin-4(5H)-one (E)-butenedioate]: the “Percentage of increase of the aconitine dose for initiating the extrasystoles” value in data set [2] (setting [6]) is 142%; in data set [2] (setting [7]), > 188%. Also, the “LD0 (maximum dose which did not cause any deaths over 8 days)” value in the data set with mouse (IP) and in the data set on mouse (oral (O)) was 100 mg/kg each time.

For the molecule `COc1ccc(C2CSc3ccccc3N(CCN(C)C)C2=O)cc1` (stereo not shown) [Example 13, 2,3-dihydro-5-8 2-(dimethylamino)-ethyl]-3-(4-methoxy phenyl)-1,5-benzothiazepin-4(5H)-one (E)-2-butenedioate], the “Percentage of increase of the aconitine dose for initiating the extrasystoles” value in data set [2] (setting [6]) worked out at 24%; in data set [2] (setting [7]) it was 35%. Also, the “Percentage of inhibition of the broncho-constriction” value in data set [3] is 87%. The “LD0 (maximum dose which did not cause any deaths over 8 days)” value is 80 mg/kg in the data set on mouse (IP) and > 200 mg/kg in the data set with mouse (oral (O)).

In the case of `CCN(CC)CCN1C(=O)C(c2ccc(OC)cc2)CSc2ccccc21.O=C(O)C(=O)O` (stereo not shown) [Example 5, 5-[2-(diethylamino)-ethyl]-2,3-dihydro-3-(4-methoxyphenyl)-1,5-benzothiazepin-4(5H)-one ethanedioate], the “Percentage of inhibition of the broncho-constriction” value in data set [3] is on record as 87%.

In the case of `COc1ccc(C2CSc3ccccc3N(CCN3CCCC3)C2=O)cc1` (stereo not shown) [Example 1, 2,3-dihydro-3-(4-methoxy-phenyl)-5-[2-(1-pyrrolidinyl)-ethyl]-1,5-benzothiazepin-4(5H)-one (Z)-2-butenedioate], the IC50 in data set [1] (setting [4]) turned out to be 78 µM; in data set [1] (setting [5]), 74 µM. In addition, in data set [3], the “Percentage of inhibition of the broncho-constriction” value stood at 79%.

Take `CN(C)CCN1C(=O)C(c2ccc(Cl)cc2)CSc2ccccc21.Cl` (stereo not shown) [Example 11, 3-(4-chloro-phenyl)-2,3-dihydro-5-[2-(dimethylamino)-ethyl]-1,5-benzothiazepin-4(5H)-one hydrochloride]: the “Percentage of increase of the aconitine dose for initiating the extrasystoles” value in data set [2] (setting [6]) is reported as 32%; in data set [2] (setting [7]), 135%. Besides, the values for the IC50 in data set [1] (setting [4]) and in data set [1] (setting [5]) were 40 µM and 8 µM, respectively. In addition, in data set [3], the “Percentage of inhibition of the broncho-constriction” value is 82%. Also, the “LD0 (maximum dose which did not cause any deaths over 8 days)” value is given as 80 mg/kg in the data set with mouse (IP) and 100 mg/kg in the data set on mouse (oral (O)).

As to `COc1ccccc1C1CSc2ccccc2N(CCN(C)C)C1=O.Cl` (stereo not shown) [Example 12, 2,3-dihydro-5-[2-(dimethylamino)-ethyl]-3-(2-methoxy-phenyl)-1,5-benzothiazepin-4(5H)-one hydrochloride], the IC50 in data set [1] (setting [4]) was determined as 9 µM; in data set [1] (setting [5]), 56 µM. Also, the “Percentage of inhibition of the broncho-constriction” value in data set [3] was determined as 64%. The entries for the “LD0 (maximum dose which did not cause any deaths over 8 days)” value in the data set with mouse (IP) and in the data set with mouse (oral (O)) were 100 mg/kg and > 200 mg/kg, respectively.

Take `COc1ccc(C2CSc3ccccc3N(CCN3CCN(C)CC3)C2=O)cc1` (stereo not shown) [Example 7, 2,3-dihydro-3-(4-methoxyphenyl)-5-[2-(4-methyl-1-piperazinyl)-ethyl]-1,5-benzothiazepin-4(5H)-one dichlorhydrate]: the “Percentage of increase of the aconitine dose for initiating the extrasystoles” value came out at 25% in data set [2] (setting [6]) and 129% in data set [2] (setting [7]). The “LD0 (maximum dose which did not cause any deaths over 8 days)” value with mouse (IP) and in the data set with mouse (oral (O)) was 100 mg/kg each time.
